# Results taken from patent publication US5773421A, “Antifungal fusacandins” (Abbott Laboratories, priority 1995, dated 1998).
# Where two headings read alike, the source gives them in different places.
# What was measured:
# [1] = MIC by broth dilution assay; assay type: cell-based; details: 144 h, Table 6d, no sorbitol, 2 ×10^5 organisms/mL
# Method: Minimal inhibitory concentrations (MICs) were determined by a broth dilution assay described by Frost, D., Brandt, K., Cugier, D., and Goldman, R. in J. Antibiotics 48: 306-310 (1995) which is incorporated herein by reference. The final concentration of cells was 2 ×10^5 organisms/mL.
# (1,3)-β-Glucan Synthase = target: T1, (1,3)-β-Glucan Synthase (Candida albicans, UniProt O13428); assay: In vitro inhibition of (1,3)-β-glucan synthase activity, microsomal enzyme preparation; assay type: biochemical; details: C. albicans CCH 442 microsomal enzyme
# T1 construct: microsomal enzyme preparation C. albicans CCH 442; endogenous in cells; host or cells: Candida albicans CCH 442, microsomes
# Method: The assay was conducted in a final volume of 100 μL of 2.0 mM UDP-[^14 C]-Glc (0.625 mCi/mmol), 1 mM EDTA, 8% (v/v) glycerol, 20 μM GTPgS, 0.5% Brij-35(v/v) or 0.8% BSA, 80 mM Tris/HCl, pH 7.75, and microsomal enzyme preparation C. albicans CCH 442 (100 μg of protein). A detailed description of this assay is described by Frost, D., Brandt, K. Capobioanco, and Goldman, R., Microbiology 140: 2239-2246 (1994) which is incorporated herein by reference.
# [2] = test system: Streptococcus bovis A-5169; assay: MIC by agar dilution method; assay type: cell-based; details: Streptococcus equinus, A5169, 20 h
# [3] = test system: Streptococcus pyrogenes EES61; assay: MIC by agar dilution method; assay type: cell-based; details: Streptococcus, EES61, 20 h
# [4] = test system: Nocardia asteroides ATTC 9970; assay: MIC by agar dilution method; assay type: cell-based; details: Nocardia asteroides, ATTC9970, 20 h
# [5] = test system: Staphylococcus aureus ATTC 6538p; assay: MIC by agar dilution method; assay type: cell-based; details: Staphylococcus aureus, ATTC6538P, 20 h
# [6] = test system: Candida albicans ATCC 623; assay: MIC by agar dilution method; assay type: cell-based; details: Candida albicans, ATCC623, 20 h
# Method: (§1) Minimal inhibitory concentrations (MICs) were determined by an agar dilution method. The test compounds were serially diluted in MeOH and 0.2 mL portions were mixed with 20 mL of molten, cooled Sabouraud dextrose agar (Difco). Yeast cell inoculum was prepared by growing cultures on Sabouraud dextrose agar for 18 hours at 32° C. and suspending the cells in phosphate buffered saline. Filamentous fungi were grown under the same conditions for 4 days to obtain spores. The inoculum level for all cultures was adjusted to 10^4 cells using a Petroff-Hauser cell counter. The glutarimide antifungal compounds cycloheximide or amphotericin B were used as a control. Inoculated test plates were incubated at 32° C. and examined after 20 hours.
# Candida albicans CCH 442 = assay: MIC by agar dilution method; assay type: cell-based
# Method: as §1
# [7] = test system: Candida tropicalis NRRL-Y-1; assay: MIC by agar dilution method; assay type: cell-based; details: Candida tropicalis, NRRLY1, 20 h
# Method: as §1
# [8] = test system: Candida albicans ATCC 997; assay: MIC by agar dilution method; assay type: cell-based; details: Candida albicans, ATCC997, 20 h
# Method: as §1
# [9] = test system: Aspergillus niger ATCC 164; assay: MIC by agar dilution method; assay type: cell-based; details: Aspergillus niger, ATCC164, 20 h
# Method: as §1
# [10] = test system: Torulopsis glabrata ATCC 155; assay: MIC by agar dilution method; assay type: cell-based; details: Nakaseomyces glabratus, ATCC155, 20 h
# Method: as §1
# [11] = test system: Saccharomyces cereviseae GS1-36; assay: MIC by agar dilution method; assay type: cell-based; details: Saccharomyces, GS136, 20 h
# Method: as §1
# [12] = test system: Candida albicans ATCC 38247; assay: MIC by agar dilution method; assay type: cell-based; details: ATCC38247; Table 6c; IV Candida albicans ATCC 38247; agar dilution; read-out: MIC IV
# Method: as §1
# Candida albicans 579a = assay: MIC by agar dilution method; assay type: cell-based; details: Table 6c; II Candida albicans 579a; agar dilution; read-out: MIC II
# Method: as §1
# [13] = test system: Candida albicans ATCC 62376; assay: MIC by agar dilution method; assay type: cell-based; details: ATCC62376; Table 6c; V Candida albicans ATCC 62376; agar dilution; read-out: MIC V
# Method: as §1
# [14] = test system: Candida albicans ATCC 10231; assay: MIC by agar dilution method; assay type: cell-based; details: ATCC10231; Table 6c; I Candida albicans ATCC 10231; agar dilution; read-out: MIC I
# Method: as §1
# [15] = CCH442, Table 6c, 3rd value column (head printed II), III Candida albicans CCH 442, agar dilution, read-out: MIC II
# T1 sequence (O13428 1-1897): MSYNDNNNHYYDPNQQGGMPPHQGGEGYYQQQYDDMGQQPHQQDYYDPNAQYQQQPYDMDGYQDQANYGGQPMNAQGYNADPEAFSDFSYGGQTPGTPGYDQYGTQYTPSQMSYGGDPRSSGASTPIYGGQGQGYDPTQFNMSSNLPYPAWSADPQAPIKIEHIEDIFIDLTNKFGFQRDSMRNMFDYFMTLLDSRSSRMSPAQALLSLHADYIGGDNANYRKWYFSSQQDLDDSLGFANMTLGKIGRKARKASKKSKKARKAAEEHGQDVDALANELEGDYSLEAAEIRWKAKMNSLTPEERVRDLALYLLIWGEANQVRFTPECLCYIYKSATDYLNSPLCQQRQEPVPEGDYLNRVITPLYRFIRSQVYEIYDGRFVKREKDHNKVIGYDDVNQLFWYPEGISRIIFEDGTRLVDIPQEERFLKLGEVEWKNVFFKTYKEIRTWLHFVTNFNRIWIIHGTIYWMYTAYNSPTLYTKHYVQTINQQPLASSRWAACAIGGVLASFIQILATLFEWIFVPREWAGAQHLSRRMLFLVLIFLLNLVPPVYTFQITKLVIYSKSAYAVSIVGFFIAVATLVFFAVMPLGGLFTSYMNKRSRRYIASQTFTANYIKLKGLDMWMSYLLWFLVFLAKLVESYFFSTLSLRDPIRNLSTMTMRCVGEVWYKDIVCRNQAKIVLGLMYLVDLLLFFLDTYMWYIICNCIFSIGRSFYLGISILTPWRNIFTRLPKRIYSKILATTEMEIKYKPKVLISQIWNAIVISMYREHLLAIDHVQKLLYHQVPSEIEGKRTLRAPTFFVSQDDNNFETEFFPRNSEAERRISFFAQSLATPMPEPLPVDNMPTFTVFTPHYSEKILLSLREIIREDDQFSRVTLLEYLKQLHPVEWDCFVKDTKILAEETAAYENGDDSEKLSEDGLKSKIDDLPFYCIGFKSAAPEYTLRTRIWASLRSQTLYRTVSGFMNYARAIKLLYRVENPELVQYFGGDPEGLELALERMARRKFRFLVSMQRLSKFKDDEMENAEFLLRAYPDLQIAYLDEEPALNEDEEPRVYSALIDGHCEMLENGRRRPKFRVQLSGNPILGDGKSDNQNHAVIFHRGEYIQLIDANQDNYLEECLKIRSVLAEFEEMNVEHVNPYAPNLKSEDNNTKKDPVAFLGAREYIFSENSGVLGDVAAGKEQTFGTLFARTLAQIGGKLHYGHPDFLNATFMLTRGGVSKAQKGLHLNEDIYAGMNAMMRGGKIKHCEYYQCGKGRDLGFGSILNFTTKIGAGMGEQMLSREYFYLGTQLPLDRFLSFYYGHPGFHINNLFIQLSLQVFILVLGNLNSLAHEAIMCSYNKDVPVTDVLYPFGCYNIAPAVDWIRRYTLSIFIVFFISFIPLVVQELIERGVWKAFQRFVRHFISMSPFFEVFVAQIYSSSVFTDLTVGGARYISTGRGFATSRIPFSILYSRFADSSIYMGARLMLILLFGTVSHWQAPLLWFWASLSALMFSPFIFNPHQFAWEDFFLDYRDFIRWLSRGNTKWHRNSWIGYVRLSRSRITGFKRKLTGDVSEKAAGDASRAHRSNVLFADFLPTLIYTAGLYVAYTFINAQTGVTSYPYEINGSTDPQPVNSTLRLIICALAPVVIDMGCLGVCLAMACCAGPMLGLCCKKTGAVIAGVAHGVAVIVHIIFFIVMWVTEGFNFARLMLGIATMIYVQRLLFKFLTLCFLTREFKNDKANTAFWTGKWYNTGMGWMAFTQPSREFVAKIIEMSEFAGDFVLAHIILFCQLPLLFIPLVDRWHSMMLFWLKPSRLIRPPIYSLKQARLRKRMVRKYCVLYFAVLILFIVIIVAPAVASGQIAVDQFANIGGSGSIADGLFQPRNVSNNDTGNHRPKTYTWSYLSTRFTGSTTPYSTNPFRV
SMILES,MIC [12] [µg/mL],MIC (Candida albicans CCH 442; [15]) [µg/mL],MIC (Candida albicans 579a) [µg/mL],MIC [13] [µg/mL],MIC [14] [µg/mL],also measured
"CC/C=C/C/C=C\C=C\C(=O)OC[C@H]1O[C@@H](O[C@H]2[C@H](OC(=O)/C=C/C=C/CC(O)/C=C/C=C/CCCCC)[C@@H](O)[C@H](c3c(O)cc(O)cc3CO)O[C@@H]2CO)[C@H](O[C@@H]2O[C@H](CO)[C@H](O)[C@H](O)[C@H]2O)[C@@H](O)[C@H]1O (some centres unmarked) [Example 9, fusacandin C]",,,,,,"MIC [1]: 1.95 µg/mL; IC50 ((1,3)-β-Glucan Synthase; 0.5% Brij-35, read-out: IC50 With Brij-35 (converted)): 35 µM; IC50 ((1,3)-β-Glucan Synthase; 0.8% BSA, read-out: IC50 With BSA (converted)): 194 µM"
"C[C@@H]1C[C@@H]([C@H](O)CC2CC(=O)NC(=O)C2)C(=O)[C@@H](C)C1 [Cycloheximide, cycloheximide, reference compound]",,,,,,"MIC [2]: 25 µg/mL; MIC [3]: 50 µg/mL; MIC [4]: 1.6 µg/mL; MIC [5]: 0.8 µg/mL; MIC [6]: > 100 µg/mL; MIC (Candida albicans CCH 442; Candida albicans, CCH442, 20 h): > 100 µg/mL; MIC [7]: 0.4 µg/mL; MIC [8]: > 100 µg/mL; MIC [9]: 1.6 µg/mL; MIC [10]: 0.4 µg/mL; MIC [11]: < 0.05 µg/mL"
CCCCC/C=C/C=C/[C@@H](O)C/C=C/C=C/C(=O)O[C@@H]1[C@@H](O)[C@H](c2c(O)cc(O)cc2CO)O[C@H](CO)[C@H]1O[C@@H]1O[C@H](COC(=O)c2ccc3ccccc3c2)[C@H](O)[C@H](O)[C@H]1O[C@@H]1O[C@H](CO)[C@H](O)[C@H](O)[C@H]1O [Example 19],0.78,1.56,0.78,3.12,3.12,
CCCCC/C=C/C=C/[C@@H](O)C/C=C/C=C/C(=O)O[C@@H]1[C@@H](O)[C@H](c2c(O)cc(O)cc2CO)O[C@H](CO)[C@H]1O[C@@H]1O[C@H](COC(=O)c2ccc(-c3ccc(OC)cc3)cc2)[C@H](O)[C@H](O)[C@H]1O[C@@H]1O[C@H](CO)[C@H](O)[C@H](O)[C@H]1O [Example 32],3.12,0.78,1.56,0.78,0.78,
CCCCC/C=C/C=C/[C@@H](O)C/C=C/C=C/C(=O)O[C@@H]1[C@@H](O)[C@H](c2c(O)cc(O)cc2CO)O[C@H](CO)[C@H]1O[C@@H]1O[C@H](COC(=O)c2ccc(-c3ccc(OC(C)C)cc3)cc2)[C@H](O)[C@H](O)[C@H]1O[C@@H]1O[C@H](CO)[C@H](O)[C@H](O)[C@H]1O [Example 43],0.78,0.78,0.78,0.78,1.56,
C=CCOc1ccc2cc(C(=O)OC[C@H]3O[C@@H](O[C@H]4[C@H](OC(=O)/C=C/C=C/C[C@H](O)/C=C/C=C/CCCCC)[C@@H](O)[C@H](c5c(O)cc(O)cc5CO)O[C@@H]4CO)[C@H](O[C@@H]4O[C@H](CO)[C@H](O)[C@H](O)[C@H]4O)[C@@H](O)[C@H]3O)ccc2c1 [Example 23],6.25,6.25,3.12,6.25,12.5,
CCCCC/C=C/C=C/[C@@H](O)C/C=C/C=C/C(=O)O[C@@H]1[C@@H](O)[C@H](c2c(O)cc(O)cc2CO)O[C@H](CO)[C@H]1O[C@@H]1O[C@H](COC(=O)c2ccc3c(c2)-c2ccccc2-3)[C@H](O)[C@H](O)[C@H]1O[C@@H]1O[C@H](CO)[C@H](O)[C@H](O)[C@H]1O [Example 28],0.78,0.39,0.39,1.56,1.56,
CCCCC/C=C/C=C/[C@@H](O)C/C=C/C=C/C(=O)O[C@@H]1[C@@H](O)[C@H](c2c(O)cc(O)cc2CO)O[C@H](CO)[C@H]1O[C@@H]1O[C@H](COC(=O)c2ccc(-c3ccc(OCCCCCCCC)cc3)cc2)[C@H](O)[C@H](O)[C@H]1O[C@@H]1O[C@H](CO)[C@H](O)[C@H](O)[C@H]1O [Example 38],50,25,25,12.5,25,
CCCCC/C=C/C=C/[C@@H](O)C/C=C/C=C/C(=O)O[C@@H]1[C@@H](O)[C@H](c2c(O)cc(O)cc2CO)O[C@H](CO)[C@H]1O[C@@H]1O[C@H](COC(=O)c2ccc(-c3ccccc3OC)cc2)[C@H](O)[C@H](O)[C@H]1O[C@@H]1O[C@H](CO)[C@H](O)[C@H](O)[C@H]1O [Example 40],6.25,6.25,1.56,1.56,6.25,
CCCCC/C=C/C=C/[C@@H](O)C/C=C/C=C/C(=O)O[C@@H]1[C@@H](O)[C@H](c2c(O)cc(O)cc2CO)O[C@H](CO)[C@H]1O[C@@H]1O[C@H](COC(=O)c2ccc(-c3ccc(OCc4ccccc4)cc3)cc2)[C@H](O)[C@H](O)[C@H]1O[C@@H]1O[C@H](CO)[C@H](O)[C@H](O)[C@H]1O [Example 37],3.12,3.12,1.56,1.56,1.56,
CCCCC/C=C/C=C/[C@@H](O)C/C=C/C=C/C(=O)O[C@@H]1[C@@H](O)[C@H](c2c(O)cc(O)cc2CO)O[C@H](CO)[C@H]1O[C@@H]1O[C@H](COC(=O)CCC)[C@H](O)[C@H](O)[C@H]1O[C@@H]1O[C@H](CO)[C@H](O)[C@H](O)[C@H]1O [Example 12],25,25,50,50,50,
CCCCC/C=C/C=C/[C@@H](O)C/C=C/C=C/C(=O)O[C@@H]1[C@@H](O)[C@H](c2c(O)cc(O)cc2CO)O[C@H](CO)[C@H]1O[C@@H]1O[C@H](COC(=O)Cc2ccc3ccccc3c2)[C@H](O)[C@H](O)[C@H]1O[C@@H]1O[C@H](CO)[C@H](O)[C@H](O)[C@H]1O [Example 22],12.5,3.12,3.12,6.25,6.25,
CCCCC/C=C/C=C/[C@@H](O)C/C=C/C=C/C(=O)O[C@@H]1[C@@H](O)[C@H](c2c(O)cc(O)cc2CO)O[C@H](CO)[C@H]1O[C@@H]1O[C@H](COC(=O)CCCCCCCCC)[C@H](O)[C@H](O)[C@H]1O[C@@H]1O[C@H](CO)[C@H](O)[C@H](O)[C@H]1O [Example 13],12.5,6.25,12.5,12.5,12.5,
CCCCC/C=C/C=C/[C@@H](O)C/C=C/C=C/C(=O)O[C@@H]1[C@@H](O)[C@H](c2c(O)cc(O)cc2CO)O[C@H](CO)[C@H]1O[C@@H]1O[C@H](COC(=O)/C=C/c2ccccc2)[C@H](O)[C@H](O)[C@H]1O[C@@H]1O[C@H](CO)[C@H](O)[C@H](O)[C@H]1O [Example 16],6.25,12.5,12.5,12.5,12.5,
